Experiment [1] deals with Mus musculus. Nature of the experiment: Significant suppressive activity of delayed type hypersensitivity (DTH) with out inhibition of humoral immunity in mice by oral administration at dose of 400 mg/kg. The format is functional.
Experiment [2] concerns Mus musculus. Nature of the experiment: Significant suppressive activity of delayed type hypersensitivity (DTH) with out inhibition of humoral immunity in mice by oral administration at dose of 50 mg/kg. The format is functional.

SMILES strings stand for the structures.

In general, inhibition in vivo refers to the change of the read-out against control, counted positive when it falls. For `Cc1ccc(-c2cn3c(n2)sc2ccccc23)cc1O`, in the experiment with Mus musculus [1], the “Increase in ear thickness” value is 3.2 1/100mm and the inhibition in vivo at 400 mg/kg is 39.6%. Further, in the experiment with Mus musculus [2], the “Increase in ear thickness” value is given as 3.3 1/100mm and the inhibition in vivo at 50 mg/kg came to 37.7%.
In the same order, the values of `CS(=O)(=O)Nc1cccc(-c2cn3c(n2)sc2ccccc23)c1` are 3.6 1/100mm, 32.1%, 3.8 1/100mm and 28.3%.
The matching figures for `COC(=O)c1cc(-c2cn3c(n2)sc2ccccc23)ccc1O`: 2.3 1/100mm, 42.5%, 4.2 1/100mm and -5%.
In the same order, the values of `O=[N+]([O-])c1cccc(-c2cn3c(n2)sc2ccccc23)c1` are 2.1 1/100mm, 60.4%, 3.2 1/100mm and 39.6%.
With `Oc1ccccc1-c1cn2c(n1)sc1ccccc12`, in the experiment with Mus musculus [1], the “Increase in ear thickness” value is listed as 1.4 1/100mm and the inhibition in vivo at 400 mg/kg stood at 65%. Besides, in the experiment on Mus musculus [2], the “Increase in ear thickness” value is on record as 3.5 1/100mm and the inhibition in vivo at 50 mg/kg is 12.5%.
Turning to `Oc1ccc(-c2cn3c(n2)sc2ccccc23)cc1`, in the experiment with Mus musculus [1], the “Increase in ear thickness” value was 3.6 1/100mm and the inhibition in vivo at 400 mg/kg came out at 40.9%. Further, in the experiment with Mus musculus [2], the “Increase in ear thickness” value was 3.4 1/100mm and the inhibition in vivo at 50 mg/kg was 44.2%.
The matching figures for `N#Cc1cccc(-c2cn3c(n2)sc2ccccc23)c1`: 4.7 1/100mm, -46.9%, 3 1/100mm and 6.3%.
Regarding `Ic1ccc(-c2cn3c(n2)sc2ccccc23)cc1`, in the experiment with Mus musculus [1], the “Increase in ear thickness” value is 5.3 1/100mm and the inhibition in vivo at 400 mg/kg was -1.9%. Also, in the experiment with Mus musculus [2], the “Increase in ear thickness” value is on record as 6.4 1/100mm and the inhibition in vivo at 50 mg/kg is -23.1%.
The matching figures for `COc1ccccc1-c1cn2c(n1)sc1ccccc12`: 4.7 1/100mm, 17.5%, 5.5 1/100mm and 3.5%.
Take `CC(=O)Nc1cccc(-c2cn3c(n2)sc2ccccc23)c1`: in the experiment with Mus musculus [1], the “Increase in ear thickness” value was 3.9 1/100mm and the inhibition in vivo at 400 mg/kg is 26%. Further, in the experiment with Mus musculus [2], the “Increase in ear thickness” value is reported as 3.5 1/100mm and the inhibition in vivo at 50 mg/kg came out at 34%.
In the same order, the values of `Cc1ccc(-c2cn3c(n2)sc2ccccc23)cc1S(C)(=O)=O` are 4.9 1/100mm, 3.9%, 1.9 1/100mm and 53.7%.
The matching figures for `O=[N+]([O-])c1cc(-c2cn3c(n2)sc2ccccc23)ccc1O`: 4.2 1/100mm, 20.8%, 4.1 1/100mm and 22.6%.
Consider `COc1cccc(-c2cn3c(n2)sc2ccccc23)c1`, for which, in the experiment on Mus musculus [1], the “Increase in ear thickness” value is reported as 2.1 1/100mm and the inhibition in vivo at 400 mg/kg is 34.4%. Moreover, in the experiment with Mus musculus [2], the “Increase in ear thickness” value is reported as 2.8 1/100mm and the inhibition in vivo at 50 mg/kg came to 12.5%.
`Cc1c(-c2cccc(O)c2)nc2sc3ccccc3n12`: in the experiment with Mus musculus [1], the “Increase in ear thickness” value is reported as 3.6 1/100mm and the inhibition in vivo at 400 mg/kg was found to be 16.3%. In addition, in the experiment with Mus musculus [2], the “Increase in ear thickness” value is listed as 3.9 1/100mm and the inhibition in vivo at 50 mg/kg is 9.3%.
In the same order, the values of `c1ccc(-c2cn3c(n2)sc2ccccc23)cc1` are 5.7 1/100mm, 1.7%, 6 1/100mm and -3.4%.
With `Nc1cccc(-c2cn3c(n2)sc2ccccc23)c1`, in the experiment with Mus musculus [1], the “Increase in ear thickness” value was 4.3 1/100mm and the inhibition in vivo at 400 mg/kg stood at 18.9%. In addition, in the experiment on Mus musculus [2], the “Increase in ear thickness” value is given as 4.1 1/100mm and the inhibition in vivo at 50 mg/kg stood at 22.6%.
The matching figures for `Clc1cccc(-c2cn3c(n2)sc2ccccc23)c1`: 5.8 1/100mm, -11.5%, 5 1/100mm and 3.8%.
In the same order, the values of `Clc1ccccc1-c1cn2c(n1)sc1ccccc12` are 6.3 1/100mm, -21.2%, 5 1/100mm and 3.8%.
The matching figures for `Oc1cc(O)cc(-c2cn3c(n2)sc2ccccc23)c1`: 3.6 1/100mm, 21.7%, 5.8 1/100mm and -26.1%.
Regarding `O=[N+]([O-])c1ccc(-c2cn3c(n2)sc2ccccc23)cc1`, in the experiment on Mus musculus [1], the “Increase in ear thickness” value was 5 1/100mm and the inhibition in vivo at 400 mg/kg is 27.5%. Also, in the experiment with Mus musculus [2], the “Increase in ear thickness” value is listed as 5.4 1/100mm and the inhibition in vivo at 50 mg/kg was 21.7%.
The matching figures for `COC(=O)c1ccc(-c2cn3c(n2)sc2ccccc23)cc1`: 4.9 1/100mm, 14%, 6 1/100mm and -5.3%.
The matching figures for `COC(=O)c1cccc(-c2cn3c(n2)sc2ccccc23)c1`: 1.9 1/100mm, 64.2%, 1.9 1/100mm and 64.2%.
The matching figures for `COc1ccc(-c2cn3c(n2)sc2ccccc23)cc1O`: 4.6 1/100mm, 13.2%, 4.9 1/100mm and 7.5%.
Consider `Oc1cc(-c2cn3c(n2)sc2ccccc23)ccc1Cl`, for which, in the experiment on Mus musculus [1], the “Increase in ear thickness” value is 3.7 1/100mm and the inhibition in vivo at 400 mg/kg came to 14%. For the same compound, in the experiment with Mus musculus [2], the “Increase in ear thickness” value is listed as 2.4 1/100mm and the inhibition in vivo at 50 mg/kg is 44.2%.
Consider `COC(=O)c1cccc(-c2cn3c(n2)sc2cc(O)ccc23)c1`, for which, in the experiment with Mus musculus [1], the “Increase in ear thickness” value is reported as 5.1 1/100mm and the inhibition in vivo at 400 mg/kg is -24.4%. In the experiment with Mus musculus [2], the “Increase in ear thickness” value is on record as 3.8 1/100mm and the inhibition in vivo at 50 mg/kg is 7.3%.
The matching figures for `O=C(O)c1cccc(-c2cn3c(n2)sc2ccccc23)c1`: 3.2 1/100mm, 25.6%, 2.8 1/100mm and 34.9%.
In the same order, the values of `Clc1ccc(-c2cn3c(n2)sc2ccccc23)cc1` are 5.9 1/100mm, 14.5%, 4.8 1/100mm and 30.4%.
As for `COc1ccc2nc(NC(=O)Nc3ccccc3)sc2c1` [FRENTIZOLE], in the experiment with Mus musculus [2], the “Increase in ear thickness” value was 3.5 1/100mm and the inhibition in vivo at 50 mg/kg worked out at 42.6%.

These data come from ChEMBL document CHEMBL1123416, “Imidazo[2,1-b]benzothiazoles. 2. New immunosuppressive agents” (1986).
